Reference: ChEMBL document CHEMBL5137080, “Discovery of Novel 7-Hydroxy-5-oxo-4,5-dihydrothieno[3,2-b]pyridine-6-carboxamide Derivatives with Potent and Selective Antifungal Activity against Cryptococcus Species” (J Med Chem, 2022)
Values after ≈ are worked out from the molar mass of the structure shown.

What was measured:
Aspergillus fumigatus = assay: Antifungal activity against Aspergillus fumigatus 7544 assessed as fungal growth inhibition incubated for 48 hrs by broth microdilution method; format: functional
[1] = Cytotoxicity against human HUVEC cells assessed as inhibition on cell growth incubated for 24 hrs by CCK-8 assay; format: toxicity, cell-based
Cryptococcus neoformans = assay: Antifungal activity against Cryptococcus neoformans H99 assessed as fungal growth inhibition incubated for 72 hrs by broth microdilution method; format: functional
Candida albicans = assay: Antifungal activity against Candida albicans SC5314 assessed as fungal growth inhibition incubated for 48 hrs by broth microdilution method; format: functional
[2] = Cytotoxicity against human HUVEC cells assessed as cell viability at 256 ug/ml incubated for 24 hrs by CCK-8 assay; format: toxicity, cell-based; conditions: at 256 µg/mL, read-out: Activity
[3] = Cytotoxicity against human HUVEC cells assessed as cell viability at 64 ug/ml incubated for 24 hrs by CCK-8 assay; format: toxicity, cell-based; conditions: at 64 µg/mL, read-out: Activity
[4] = Hemolytic activity in rabbit RBC at 16 ug/ml incubated for 1 hr by spectrophotometry; format: toxicity, cell-based, Oryctolagus cuniculus, Erythrocyte; conditions: red blood cells, at 16 µg/mL, read-out: Activity
[5] = Cytotoxicity against human Caco-2 cells assessed as cell viability at 256 ug/ml incubated for 24 hrs by CCK-8 assay; format: toxicity, cell-based; conditions: at 256 µg/mL, read-out: Activity
[6] = Hemolytic activity in rabbit RBC at 64 ug/ml incubated for 1 hr by spectrophotometry; format: toxicity, cell-based, Oryctolagus cuniculus, Erythrocyte; conditions: red blood cells, at 64 µg/mL, read-out: Activity
[7] = Cytotoxicity against human Caco-2 cells assessed as cell viability at 64 ug/ml incubated for 24 hrs by CCK-8 assay; format: toxicity, cell-based; conditions: at 64 µg/mL, read-out: Activity
[8] = Hemolytic activity in rabbit RBC at 32 ug/ml incubated for 1 hr by spectrophotometry; format: toxicity, cell-based, Oryctolagus cuniculus, Erythrocyte; conditions: red blood cells, at 32 µg/mL, read-out: Activity

Row | Structure (SMILES) | MIC (Aspergillus fumigatus) [µg/mL] | IC50 at 24 h [1] [µg/mL] | MIC (Cryptococcus neoformans) [µg/mL] | MIC (Candida albicans) [µg/mL] | also measured
1 | CCCNC(=O)c1c(O)c2sccc2n(Cc2ccccc2)c1=O | > 64 | > 64 | 2 (≈ 5.84 µM) | > 64 | –
2 | O=C(NCc1cc(F)cc(F)c1)c1c(O)c2sccc2n(Cc2ccccc2)c1=O | > 64 | – | 2 (≈ 4.69 µM) | > 64 | –
3 | CC(NC(=O)c1c(O)c2sccc2n(Cc2ccccc2)c1=O)c1ccc(F)cc1 (stereo not drawn) | > 64 | – | 2 (≈ 4.73 µM) | > 64 | –
4 | COc1ccc(CNC(=O)c2c(O)c3sccc3n(Cc3ccccc3)c2=O)cc1 | > 64 | – | 2 (≈ 4.76 µM) | > 64 | –
5 | O=C(NCc1ccccc1Cl)c1c(O)c2sccc2n(Cc2ccccc2)c1=O | > 64 | – | 2 (≈ 4.71 µM) | > 64 | –
6 | O=C(NCc1cccc(Cl)c1)c1c(O)c2sccc2n(Cc2ccccc2)c1=O | > 64 | – | 2 (≈ 4.71 µM) | > 64 | –
7 | O=C(NCC1CC1)c1c(O)c2sccc2n(Cc2ccccc2)c1=O | > 64 | – | 1 (≈ 2.82 µM) | > 64 | –
8 | O=C(NCc1cccs1)c1c(O)c2sccc2n(Cc2ccccc2)c1=O | > 64 | – | 2 (≈ 5.04 µM) | > 64 | –
9 | C=CCCNC(=O)c1c(O)c2sccc2n(Cc2ccccc2)c1=O | > 64 | > 64 | 0.25 (≈ 0.705 µM) | > 64 | –
10 | CC(C)CNC(=O)c1c(O)c2sccc2n(Cc2ccccc2)c1=O | > 64 | – | 16 (≈ 44.9 µM) | > 64 | –
11 | C[C@@H]1[C@H](O)[C@@H](C)/C=C/C=C/C=C/C=C/C=C/C=C/C=C/[C@H](O[C@@H]2O[C@H](C)[C@@H](O)[C@H](N)[C@@H]2O)C[C@@H]2O[C@](O)(C[C@@H](O)C[C@@H](O)[C@H](O)CC[C@@H](O)C[C@@H](O)CC(=O)O[C@H]1C)C[C@H](O)[C@H]2C(=O)O [AMPHOTERICIN B] | 2 (≈ 2.16 µM) | 16 (≈ 17.3 µM) | 1 (≈ 1.08 µM) | 0.125 (≈ 0.135 µM) | viability at 24 h, 256 ug/ml [2]: 13.7%; viability at 24 h, 64 ug/ml [3]: 68.2%; hemolysis at 1 h, 16 ug/ml [4]: 8.06%; viability at 24 h, 256 ug/ml [5]: 28.7%; hemolysis at 1 h, 64 ug/ml [6]: 100%; viability at 24 h, 64 ug/ml [7]: 64.8%; hemolysis at 1 h, 32 ug/ml [8]: > 95%
12 | CCOCCNC(=O)c1c(O)c2sccc2n(Cc2ccccc2)c1=O | 16 (≈ 43 µM) | 8 (≈ 21.5 µM) | 0.5 (≈ 1.34 µM) | > 64 | –
13 | CN(C)c1ccc(CNC(=O)c2c(O)c3sccc3n(Cc3ccccc3)c2=O)cc1 | > 64 | – | 4 (≈ 9.23 µM) | > 64 | –
14 | O=C(NCCN1CCOCC1)c1c(O)c2sccc2n(Cc2ccccc2)c1=O | 64 (≈ 155 µM) | – | 8 (≈ 19.3 µM) | 32 (≈ 77.4 µM) | –
15 | O=C(NCCc1ccccc1)c1c(O)c2sccc2n(Cc2ccccc2)c1=O | > 64 | – | 4 (≈ 9.89 µM) | > 64 | –
16 | O=C(Nc1ccccc1)c1c(O)c2sccc2n(Cc2ccccc2)c1=O | > 64 | – | > 64 | > 64 | –
17 | O=C(NCc1ccncc1)c1c(O)c2sccc2n(Cc2ccccc2)c1=O | 8 (≈ 20.4 µM) | – | 2 (≈ 5.11 µM) | 64 (≈ 163 µM) | –
18 | O=C(NC1CCCCC1)c1c(O)c2sccc2n(Cc2ccccc2)c1=O | > 64 | > 64 | 8 (≈ 20.9 µM) | > 64 | –
19 | Cc1ccccc1CNC(=O)c1c(O)c2sccc2n(Cc2ccccc2)c1=O | > 64 | – | 2 (≈ 4.94 µM) | > 64 | –
20 | CC1CCN(CCNC(=O)c2c(O)c3sccc3n(Cc3ccccc3)c2=O)CC1 | 32 (≈ 75.2 µM) | – | 32 (≈ 75.2 µM) | 32 (≈ 75.2 µM) | –
21 | CC(NC(=O)c1c(O)c2sccc2n(Cc2ccccc2)c1=O)c1ccccc1 (stereo not drawn) | > 64 | – | 4 (≈ 9.89 µM) | > 64 | –
22 | CCC(C)NC(=O)c1c(O)c2sccc2n(Cc2ccccc2)c1=O (stereo not drawn) | 64 (≈ 180 µM) | – | 4 (≈ 11.2 µM) | > 64 | –
23 | CCCCCCNC(=O)c1c(O)c2sccc2n(Cc2ccccc2)c1=O | > 64 | > 64 | 0.5 (≈ 1.3 µM) | > 64 | –

Row | Structure (SMILES) | MIC (Aspergillus fumigatus) [µg/mL] | IC50 at 24 h [1] [µg/mL] | MIC (Cryptococcus neoformans) [µg/mL] | MIC (Candida albicans) [µg/mL] | also measured
24 | Cc1ccc(CNC(=O)c2c(O)c3sccc3n(Cc3ccccc3)c2=O)o1 | > 64 | – | 2 (≈ 5.07 µM) | > 64 | –
25 | O=C(NCc1ccc(Cl)cc1)c1c(O)c2sccc2n(Cc2ccccc2)c1=O | > 64 | – | 1 (≈ 2.35 µM) | > 64 | –
26 | CC(C)NC(=O)c1c(O)c2sccc2n(Cc2ccccc2)c1=O | > 64 | > 64 | 2 (≈ 5.84 µM) | > 64 | –
27 | O=C(NCCCO)c1c(O)c2sccc2n(Cc2ccccc2)c1=O | 32 (≈ 89.3 µM) | 64 (≈ 179 µM) | 4 (≈ 11.2 µM) | > 64 | –
28 | O=C(NCc1ccc(F)cc1)c1c(O)c2sccc2n(Cc2ccccc2)c1=O | > 64 | – | 4 (≈ 9.79 µM) | > 64 | –
29 | CCCCCNC(=O)c1c(O)c2sccc2n(Cc2ccccc2)c1=O | > 64 | > 64 | 0.5 (≈ 1.35 µM) | > 64 | –
30 | O=C(NN1CCOCC1)c1c(O)c2sccc2n(Cc2ccccc2)c1=O | > 64 | > 64 | > 64 | > 64 | –
31 | CSc1ccc(CNC(=O)c2c(O)c3sccc3n(Cc3ccccc3)c2=O)cc1 | > 64 | – | 2 (≈ 4.58 µM) | > 64 | –
32 | O=C(NCCO)c1c(O)c2sccc2n(Cc2ccccc2)c1=O | 32 (≈ 92.9 µM) | 64 (≈ 186 µM) | 8 (≈ 23.2 µM) | > 64 | –
33 | O=C(NC1CCCC1)c1c(O)c2sccc2n(Cc2ccccc2)c1=O | > 64 | > 64 | 4 (≈ 10.9 µM) | > 64 | –
34 | O=C(NN1CCCCC1)c1c(O)c2sccc2n(Cc2ccccc2)c1=O | > 64 | > 64 | 16 (≈ 41.7 µM) | > 64 | –
35 | O=C(NCc1ccccn1)c1c(O)c2sccc2n(Cc2ccccc2)c1=O | 16 (≈ 40.9 µM) | – | 2 (≈ 5.11 µM) | > 64 | –
36 | O=C(NCc1ccccc1F)c1c(O)c2sccc2n(Cc2ccccc2)c1=O | > 64 | – | 2 (≈ 4.9 µM) | > 64 | –
37 | C#CCNC(=O)c1c(O)c2sccc2n(Cc2ccccc2)c1=O | > 64 | > 64 | 16 (≈ 47.3 µM) | > 64 | –
38 | O=C(NCc1ccc(F)cc1F)c1c(O)c2sccc2n(Cc2ccccc2)c1=O | > 64 | – | 2 (≈ 4.69 µM) | > 64 | –
39 | Cc1ccc(CNC(=O)c2c(O)c3sccc3n(Cc3ccccc3)c2=O)cc1C | > 64 | – | 2 (≈ 4.78 µM) | > 64 | –
40 | O=C(NCC1CCCO1)c1c(O)c2sccc2n(Cc2ccccc2)c1=O (stereo not drawn) | 16 (≈ 41.6 µM) | – | 4 (≈ 10.4 µM) | 32 (≈ 83.2 µM) | –
41 | O=C(NCCc1c[nH]c2ccccc12)c1c(O)c2sccc2n(Cc2ccccc2)c1=O | > 64 | – | 8 (≈ 18 µM) | > 64 | –
42 | COCCNC(=O)c1c(O)c2sccc2n(Cc2ccccc2)c1=O | 32 (≈ 89.3 µM) | 16 (≈ 44.6 µM) | 2 (≈ 5.58 µM) | > 64 | –
43 | COc1cccc(CNC(=O)c2c(O)c3sccc3n(Cc3ccccc3)c2=O)c1 | > 64 | – | 2 (≈ 4.76 µM) | > 64 | –
44 | O=C(NCCCCO)c1c(O)c2sccc2n(Cc2ccccc2)c1=O | 32 (≈ 85.9 µM) | 16 (≈ 43 µM) | 2 (≈ 5.37 µM) | > 64 | –
45 | O=C(NCCc1cccs1)c1c(O)c2sccc2n(Cc2ccccc2)c1=O | > 64 | – | 2 (≈ 4.87 µM) | > 64 | –
